Laboratory results published in patent publication US5529999A, “Antitumor compositions and methods of treatment” (Eli Lilly and Company, priority 1994, dated 1996).
Converted amounts (≈) assume the structure as drawn.

system: CCRF-CEM cells; test: growth inhibition / cytotoxicity against CCRF-CEM human leukemia cells in vitro; type: cell-based; settings: serum-free UltraCHO media, 72 hours incubation, read-out: IC50 (concentration required for 50% inhibition of growth), CCRF-CEM
Experimental: The in vitro data were obtained using CCRF-CEM cells, a human leukemia cell line. Foley et al., Cancer, 18:522 (1965). These cells were grown in albumin-free UltraCHO® media (BioWhittaker, Inc., Walkersville, Md.) using standard techniques. See, e.g., G. B. Grindey, et al., Journal of Molecular Pharmacology, 16:601 (1979). Dose-response curves were generated for various compounds to determine the concentration required for 50% inhibition of growth (IC50). Cluster plates were prepared in duplicate with the compound at various concentrations. Test compounds were dissolved initially in DMSO at a concentration of 4 mg/ml and further diluted with solvent to the desired concentration. Cells in serum-free UltraCHO media were added to the well at a final concentration of 4.8×10^4 cells/well in a total volume of 2.0 ml. After 72 hours of incubation (95% air, 5% CO2), cell numbers were determined on a ZBI Coulter counter. Cell number for indicated controls at the end of incubation was usually (4-6)×10^5 cells/well. Cell viability was also measured by staining with 3-[4,5-dimethylthiazol-2-yl]-2,5-diphenyl-tetrazolium bromide (MTT) using standard techniques. R. I. Freshney, Culture of Animal Cells: A Manual of Basic Technique, 253-254 (2d ed. 1987).
Column 1 refers to the example number of the compound tested; Column 2 depicts the in vitro cytoxicity against CCRF-CEM cells by relating the concentration of the test compound required for 50% inhibition of growth (IC50) of the cells in the well. The designation "CSQ" refers to the compound 4-amino-N-(5-chloro-2-quinoxalinyl)benzenesulfonamide and is used as a comparator.

SMILES	IC50 [µg/mL]
CN1CCc2cc(S(=O)(=O)Nc3cnc4ccc(Cl)cc4n3)ccc21 [Example 10, N-(7-chloro-2-quinoxalinyl)-2,3-dihydro-1-methyl-1H-indole-5-sulfonamide]	10.8 (≈ 28.8 µM)
O=S(=O)(Nc1cnc2c(Cl)cccc2n1)c1ccc2occc2c1 [Example 5, N-(5-chloro-2-quinoxalinyl)benzofuran-5-sulfonamide]	0.2 (≈ 0.556 µM)
CN(C)c1ccc(S(=O)(=O)Nc2cnc3cccc(Cl)c3n2)cc1 [Example 11, 4-N',N'-dimethylamino-N-(8-chloro-2-quinoxalinyl)benzenesulfonamide]	15.1 (≈ 41.6 µM)
CN(C)c1ccc(S(=O)(=O)Nc2cnc3ccc(Cl)cc3n2)cc1 [Example 9, 4-(N',N'-dimethylamino)-N-(7-chloro-2-quinoxalinyl)benzenesulfonamide]	10.4 (≈ 28.7 µM)
CN(C)c1ccc(S(=O)(=O)Nc2cnc3c(Cl)cccc3n2)cc1 [Example 2, 4-N',N'-dimethylamino-N-(5-chloro-2-quinoxalinyl)benzenesulfonamide]	0.1 (≈ 0.276 µM)
O=S(=O)(Nc1cnc2c(Cl)c(Cl)ccc2n1)c1ccc2c(c1)CCO2 [Example 13, N-(5,6-dichloro-2-quinoxalinyl)-2,3-dihydrobenzofuran-5-sulfonamide]	6 (≈ 15.1 µM)
O=S(=O)(Nc1cnc2ccc(Cl)c(Cl)c2n1)c1ccc2c(c1)CCO2 [Example 15, N-(7,8-dichloro-2-quinoxalinyl)-2,3-dihydrobenzofuran-5-sulfonamide]	10.8 (≈ 27.3 µM)
CN(C)c1ccc(S(=O)(=O)Nc2cnc3c(Cl)c(Cl)ccc3n2)cc1 [Example 12, 4-N',N'-dimethylamino-N-(5,6-dichloro-2-quinoxalinyl)benzenesulfonamide]	7.2 (≈ 18.1 µM)
Nc1ccc(S(=O)(=O)Nc2cnc3c(Cl)cccc3n2)cc1 [CSQ, 4-amino-N-(5-chloro-2-quinoxalinyl)benzenesulfonamide, reference compound]	0.8 (≈ 2.39 µM)
CN(C)c1ccc(S(=O)(=O)Nc2cnc3cc(Cl)c(Cl)cc3n2)cc1 [Example 1, 4-N',N'-dimethylamino-N-(6,7-dichloro-2-quinoxalinyl)benzenesulfonamide]	0.8 (≈ 2.01 µM)
CN1CCc2cc(S(=O)(=O)Nc3cnc4cc(Cl)ccc4n3)ccc21 [Example 8, N-(6-chloro-2-quinoxalinyl)-2,3-dihydro-1-methyl-1H-indole-5-sulfonamide]	1.5 (≈ 4 µM)
O=S(=O)(Nc1cnc2c(Cl)cccc2n1)c1ccc2c(c1)CCO2 [Example 4, N-(5-chloro-2-quinoxalinyl)-2,3-dihydrobenzofuran-5-sulfonamide]	0.3 (≈ 0.829 µM)
CN1CCc2cc(S(=O)(=O)Nc3cnc4c(Cl)cccc4n3)ccc21 [Example 3, N-(5-chloro-2-quinoxalinyl)-2,3-dihydro-1-methyl-1H-indole-5-sulfonamide]	0.3 (≈ 0.8 µM)
CN(C)c1ccc(S(=O)(=O)Nc2cnc3ccc(Cl)c(Cl)c3n2)cc1 [Example 14, 4-N',N'-dimethylamino-N-(7,8-dichloro-2-quinoxalinyl)benzenesulfonamide]	4.6 (≈ 11.6 µM)
Cn1ccc2cc(S(=O)(=O)Nc3cnc4c(Cl)cccc4n3)ccc21 [Example 6, N-(5-chloro-2-quinoxalinyl)-1-methyl-1H-indole-5-sulfonamide]	0.4 (≈ 1.07 µM)
CN(C)c1ccc(S(=O)(=O)Nc2cnc3cc(Cl)ccc3n2)cc1 [Example 7, 4-N',N'-dimethylamino-N-(6-chloro-2-quinoxalinyl)benzenesulfonamide]	1.2 (≈ 3.31 µM)
